Values joined by “and” are separate entries in the source; they are usually repeats but may differ in a detail not shown here. Equal entries are not always repeated. Inconclusive results and toxic doses are left out. The calls were made as follows: active = survival T/C of 150% or more; inactive = T/C below 125% in these data.
System: P388 leukemia ip, CD2F1 mice, survival T/C
Experiment: NCI In Vivo Anticancer Drug Screen. Data for tumor model P388 Leukemia (intraperitoneal) in CD2F1 (CDF1) mice
Details: endpoint: median survival time, higher = longer survival
Procedure, shortened: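 Mice carrying the transplanted tumor received test compound or vehicle. Survival was recorded in each group, and the value is the treated-group measurement divided by that of the vehicle-treated control group.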

[1] = dose: 50.0 mg/kg/injection, schedule: Q01DX005 (ip), vehicle: Klucel (hydroxypropylcellulose) (HPC)
[2] = dose: 100.0 mg/kg/injection, schedule: Q01DX005 (ip), vehicle: Klucel (hydroxypropylcellulose) (HPC)
[3] = dose: 200.0 mg/kg/injection, schedule: Q01DX005 (ip), vehicle: Klucel (hydroxypropylcellulose) (HPC)
[4] = dose: 12.5 mg/kg/injection, schedule: Q01DX009 (ip), vehicle: saline
[5] = dose: 50.0 mg/kg/injection, schedule: Q01DX005 (ip), vehicle: saline with Tween-80
[6] = dose: 100.0 mg/kg/injection, schedule: Q01DX005 (ip), vehicle: saline with Tween-80
[7] = dose: 200.0 mg/kg/injection, schedule: Q01DX005 (ip), vehicle: saline with Tween-80

Measured: T/C

COC(=O)C1=C(\OC)c2c(ccc(OC)c2OC)C(=O)N2CCc3cc4c(cc3\C2=C\1C(=O)OC)OCO4
inactive: dose: 50.0 mg/kg/injection, schedule: Q04DX002 (ip), vehicle: saline with Tween-80 103 % of control | dose: 100.0 mg/kg/injection, schedule: Q04DX002 (ip), vehicle: saline with Tween-80 105 % of control | dose: 200.0 mg/kg/injection, schedule: Q04DX002 (ip), vehicle: saline with Tween-80 94 % of control

Cc1nn(-c2ccccc2)c2c1c(=O)c1ccccc1c(=O)n2C
inactive: [1] 105 % of control | [2] 104 % of control | [3] 94 % of control

CNCCOC(=O)/C=C1\CC[C@H]2[C@@H]([C@@H](O)C(=O)[C@@H]3[C@]2(C)CC[C@H](O)[C@]3(C)C(=O)OC)[C@H]1C
inactive: dose: 3.0 mg/kg/injection, schedule: Q01DX009 (ip), vehicle: saline 100 % of control | dose: 6.0 mg/kg/injection, schedule: Q01DX009 (ip), vehicle: saline 97 % of control | dose: 12.0 mg/kg/injection, schedule: Q01DX009 (ip), vehicle: saline 109 % of control | [4] 114 % of control

COCCOCCN1CCN(CCCN2c3ccccc3Sc3ccc(C(F)(F)F)cc32)CC1
inactive: dose: 1.56 mg/kg/injection, schedule: Q04DX003 (ip), vehicle: saline 95 % of control | dose: 3.0 mg/kg/injection, schedule: Q04DX003 (ip), vehicle: saline 104 % of control and 97 % of control | dose: 3.12 mg/kg/injection, schedule: Q04DX003 (ip), vehicle: saline 95 % of control | dose: 6.0 mg/kg/injection, schedule: Q04DX003 (ip), vehicle: saline 108 % of control | dose: 6.25 mg/kg/injection, schedule: Q04DX003 (ip), vehicle: saline 96 % of control | dose: 12.0 mg/kg/injection, schedule: Q04DX003 (ip), vehicle: saline 104 % of control and 122 % of control | dose: 12.5 mg/kg/injection, schedule: Q04DX003 (ip), vehicle: saline 120 % of control | dose: 50.0 mg/kg/injection, schedule: Q04DX003 (ip), vehicle: saline 124 % of control

CCN(CC)Cc1cc(N=Nc2ccc3c(c2)c2ccccc2n3CC)c2ccccc2c1O
inactive: dose: 50.0 mg/kg/injection, schedule: Q01DX009 (ip), vehicle: saline with Tween-80 86 % of control | dose: 100.0 mg/kg/injection, schedule: Q01DX009 (ip), vehicle: saline with Tween-80 93 % of control | dose: 200.0 mg/kg/injection, schedule: Q01DX009 (ip), vehicle: saline with Tween-80 93 % of control

Cc1ccc2c(=O)ccn(Cc3ccccc3)c2n1
inactive: dose: 100.0 mg/kg/injection, schedule: Q01DX001 (ip), vehicle: saline 101 % of control | dose: 200.0 mg/kg/injection, schedule: Q01DX001 (ip), vehicle: saline 103 % of control | dose: 400.0 mg/kg/injection, schedule: Q01DX001 (ip), vehicle: saline 92 % of control

O=C(O)c1cc(Nc2nc(Cl)nc(Cl)n2)ccc1-c1c2ccc(=O)cc-2oc2cc(O)ccc12
inactive: dose: 60.0 mg/kg/injection, schedule: Q01DX005 (ip), vehicle: saline with Tween-80 115 % of control | dose: 120.0 mg/kg/injection, schedule: Q01DX005 (ip), vehicle: saline with Tween-80 119 % of control | dose: 240.0 mg/kg/injection, schedule: Q01DX005 (ip), vehicle: saline with Tween-80 117 % of control

COc1ccc(Cc2nc(C)cc3cc(OC)c(OC)cc23)cc1OC
inactive: dose: 50.0 mg/kg/injection, schedule: Q01DX009 (ip), vehicle: water 111 % of control | dose: 100.0 mg/kg/injection, schedule: Q01DX009 (ip), vehicle: water 102 % of control | dose: 200.0 mg/kg/injection, schedule: Q01DX009 (ip), vehicle: water 89 % of control

[CH3][Sn]([CH3])([CH3])[O]C(=O)CNC(=O)c1ccccc1
inactive: dose: 1.56 mg/kg/injection, schedule: Q01DX001 (ip), vehicle: Klucel (hydroxypropylcellulose) (HPC) 103 % of control | dose: 3.12 mg/kg/injection, schedule: Q01DX001 (ip), vehicle: Klucel (hydroxypropylcellulose) (HPC) 103 % of control

CCCN(CCC)CC1CN(/N=C/c2ccc([N+](=O)[O-])o2)C(=O)O1 (centres undefined)
inactive: dose: 50.0 mg/kg/injection, schedule: Q01DX005 (ip), vehicle: saline 108 % of control | dose: 100.0 mg/kg/injection, schedule: Q01DX005 (ip), vehicle: saline 100 % of control | dose: 200.0 mg/kg/injection, schedule: Q01DX005 (ip), vehicle: saline 108 % of control

CN1CCCC(Cl)(C(=O)c2ccccc2)C1 (centres undefined)
inactive: dose: 100.0 mg/kg/injection, schedule: Q04DX003 (ip), vehicle: saline 106 % of control | dose: 200.0 mg/kg/injection, schedule: Q04DX003 (ip), vehicle: saline 100 % of control

CCCCCCN(CCCCCC)P(=O)(N1CC1)N1CC1
inactive: [4] 118 % of control | dose: 25.0 mg/kg/injection, schedule: Q04DX003 (ip), vehicle: saline with Tween-80 113 % of control | dose: 100.0 mg/kg/injection, schedule: Q04DX003 (ip), vehicle: saline with Tween-80 100 % of control

O=C1/C(=C/c2ccc(O)cc2)Oc2cc(O)ccc21
inactive: dose: 100.0 mg/kg/injection, schedule: Q01DX001 (ip), vehicle: saline with Tween-80 97 % of control | dose: 200.0 mg/kg/injection, schedule: Q01DX001 (ip), vehicle: saline with Tween-80 91 % of control | dose: 400.0 mg/kg/injection, schedule: Q01DX001 (ip), vehicle: saline with Tween-80 92 % of control

C=C1C[C@@H](O)C[C@@]2(C)C[C@@H]3OC(=O)C(=C)[C@@H]3C[C@H]12
inactive: dose: 12.5 mg/kg/injection, schedule: Q01DX009 (ip), vehicle: Klucel (hydroxypropylcellulose) (HPC) 99 % of control | dose: 25.0 mg/kg/injection, schedule: Q01DX009 (ip), vehicle: Klucel (hydroxypropylcellulose) (HPC) 111 % of control | dose: 50.0 mg/kg/injection, schedule: Q01DX009 (ip), vehicle: Klucel (hydroxypropylcellulose) (HPC) 114 % of control | dose: 100.0 mg/kg/injection, schedule: Q01DX009 (ip), vehicle: Klucel (hydroxypropylcellulose) (HPC) 114 % of control

CC1=NOC(=O)/C1=C/c1ccccc1C
inactive: [5] 104 % of control | [6] 104 % of control

COc1ccc(N2CCN(/C=C3\Cc4ccc(F)cc4C3=O)CC2)cc1
inactive: dose: 100.0 mg/kg/injection, schedule: Q04DX002 (ip), vehicle: Klucel (hydroxypropylcellulose) (HPC) 103 % of control | dose: 200.0 mg/kg/injection, schedule: Q04DX002 (ip), vehicle: Klucel (hydroxypropylcellulose) (HPC) 99 % of control | dose: 400.0 mg/kg/injection, schedule: Q04DX002 (ip), vehicle: Klucel (hydroxypropylcellulose) (HPC) 95 % of control

O=[N+]([O-])c1ccc(-c2nnn(Cc3ccco3)c2N2CCCCC2)cc1
inactive: [1] 105 % of control | [2] 105 % of control | [3] 107 % of control

Cc1ccccc1C(C)(O)c1cnc(C)n1Cc1ccccc1 (centres undefined)
inactive: dose: 60.0 mg/kg/injection, schedule: Q01DX005 (ip), vehicle: Klucel (hydroxypropylcellulose) (HPC) 111 % of control | dose: 120.0 mg/kg/injection, schedule: Q01DX005 (ip), vehicle: Klucel (hydroxypropylcellulose) (HPC) 96 % of control | dose: 240.0 mg/kg/injection, schedule: Q01DX005 (ip), vehicle: Klucel (hydroxypropylcellulose) (HPC) 91 % of control

COc1cc(/C=C(\C#N)C(N)=O)cc(Br)c1O
inactive: [5] 100 % of control | [6] 103 % of control | [7] 100 % of control

O=[N+]([O-])c1ccc(/C=C/S(=O)(=O)Cc2ccccc2)cc1
inactive: [5] 105 % of control | [6] 100 % of control | [7] 96 % of control

Cc1cn(C)c2c1-c1[nH]ncc1CC2
inactive: dose: 50.0 mg/kg/injection, schedule: Q04DX003 (ip), vehicle: Klucel (hydroxypropylcellulose) (HPC) 100 % of control | dose: 100.0 mg/kg/injection, schedule: Q04DX003 (ip), vehicle: Klucel (hydroxypropylcellulose) (HPC) 99 % of control | dose: 200.0 mg/kg/injection, schedule: Q04DX003 (ip), vehicle: Klucel (hydroxypropylcellulose) (HPC) 103 % of control

CC([OH2+])CNCCN.CC([OH2+])CNCCN.[Ni+2].[O-][Cl+3]([O-])([O-])[O-] (centres undefined)
inactive: [4] 111 % of control | dose: 25.0 mg/kg/injection, schedule: Q01DX009 (ip), vehicle: saline 100 % of control

Reference: PubChem BioAssay AID330 (DTP/NCI, 2004)
